{"source": "ChEMBL document CHEMBL5678818", "about": "“Discovery of potent SOS1 inhibitors that block RAS activation via disruption of the RAS-SOS1 interaction” (Proc Natl Acad Sci U S A, 2019)", "key": {"[1]": {"target": "T1, Son of sevenless homolog 1 (Homo sapiens) (UniProt Q07889)", "T1 sequence (whole entry)": "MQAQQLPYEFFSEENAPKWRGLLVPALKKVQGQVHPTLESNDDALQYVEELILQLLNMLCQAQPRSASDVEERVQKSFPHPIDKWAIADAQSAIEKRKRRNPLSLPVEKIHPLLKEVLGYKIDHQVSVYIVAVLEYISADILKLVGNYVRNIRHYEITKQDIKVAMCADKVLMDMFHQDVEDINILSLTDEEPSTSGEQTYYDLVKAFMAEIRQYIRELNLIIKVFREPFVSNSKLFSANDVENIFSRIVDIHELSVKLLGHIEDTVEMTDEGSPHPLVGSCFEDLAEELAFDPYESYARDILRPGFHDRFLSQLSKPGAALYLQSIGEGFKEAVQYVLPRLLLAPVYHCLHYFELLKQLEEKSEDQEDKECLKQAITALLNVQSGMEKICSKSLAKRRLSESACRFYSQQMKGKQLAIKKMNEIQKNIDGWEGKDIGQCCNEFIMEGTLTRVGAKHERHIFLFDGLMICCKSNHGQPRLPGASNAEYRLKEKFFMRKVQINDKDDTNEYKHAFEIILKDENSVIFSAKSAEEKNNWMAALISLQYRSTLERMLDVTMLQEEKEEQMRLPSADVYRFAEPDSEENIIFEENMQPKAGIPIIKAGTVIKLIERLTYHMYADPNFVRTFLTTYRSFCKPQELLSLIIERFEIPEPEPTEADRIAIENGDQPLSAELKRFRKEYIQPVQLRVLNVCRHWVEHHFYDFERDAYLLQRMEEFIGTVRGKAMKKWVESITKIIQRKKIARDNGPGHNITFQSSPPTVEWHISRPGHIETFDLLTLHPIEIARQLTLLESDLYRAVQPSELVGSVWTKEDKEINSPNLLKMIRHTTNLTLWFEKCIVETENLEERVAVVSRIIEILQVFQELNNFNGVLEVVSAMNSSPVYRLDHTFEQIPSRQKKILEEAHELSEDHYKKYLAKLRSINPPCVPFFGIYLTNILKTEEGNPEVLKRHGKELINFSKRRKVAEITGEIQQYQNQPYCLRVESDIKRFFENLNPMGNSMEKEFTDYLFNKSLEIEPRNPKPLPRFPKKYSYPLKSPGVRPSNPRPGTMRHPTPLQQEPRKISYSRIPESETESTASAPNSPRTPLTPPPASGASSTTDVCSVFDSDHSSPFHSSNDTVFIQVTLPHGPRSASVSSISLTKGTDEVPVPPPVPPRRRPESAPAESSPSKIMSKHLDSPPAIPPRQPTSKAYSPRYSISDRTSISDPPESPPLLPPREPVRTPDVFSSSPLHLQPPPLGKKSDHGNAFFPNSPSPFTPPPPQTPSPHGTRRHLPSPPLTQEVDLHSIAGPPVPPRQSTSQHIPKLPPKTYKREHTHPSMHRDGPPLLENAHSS", "test": "Inhibition of N-terminal His10-tagged wild-type recombinant human SOS1 catalytic domain (564 to 1049 residues) expressed in Escherichia coli assessed as reduction in KRAS G12C mutant activation at 10 uM by HTRF analysis relative to control"}, "[2]": {"target": "T2, Mitogen-activated protein kinase kinase kinase 13 (Homo sapiens) (UniProt O43283)", "T2 sequence (whole entry)": "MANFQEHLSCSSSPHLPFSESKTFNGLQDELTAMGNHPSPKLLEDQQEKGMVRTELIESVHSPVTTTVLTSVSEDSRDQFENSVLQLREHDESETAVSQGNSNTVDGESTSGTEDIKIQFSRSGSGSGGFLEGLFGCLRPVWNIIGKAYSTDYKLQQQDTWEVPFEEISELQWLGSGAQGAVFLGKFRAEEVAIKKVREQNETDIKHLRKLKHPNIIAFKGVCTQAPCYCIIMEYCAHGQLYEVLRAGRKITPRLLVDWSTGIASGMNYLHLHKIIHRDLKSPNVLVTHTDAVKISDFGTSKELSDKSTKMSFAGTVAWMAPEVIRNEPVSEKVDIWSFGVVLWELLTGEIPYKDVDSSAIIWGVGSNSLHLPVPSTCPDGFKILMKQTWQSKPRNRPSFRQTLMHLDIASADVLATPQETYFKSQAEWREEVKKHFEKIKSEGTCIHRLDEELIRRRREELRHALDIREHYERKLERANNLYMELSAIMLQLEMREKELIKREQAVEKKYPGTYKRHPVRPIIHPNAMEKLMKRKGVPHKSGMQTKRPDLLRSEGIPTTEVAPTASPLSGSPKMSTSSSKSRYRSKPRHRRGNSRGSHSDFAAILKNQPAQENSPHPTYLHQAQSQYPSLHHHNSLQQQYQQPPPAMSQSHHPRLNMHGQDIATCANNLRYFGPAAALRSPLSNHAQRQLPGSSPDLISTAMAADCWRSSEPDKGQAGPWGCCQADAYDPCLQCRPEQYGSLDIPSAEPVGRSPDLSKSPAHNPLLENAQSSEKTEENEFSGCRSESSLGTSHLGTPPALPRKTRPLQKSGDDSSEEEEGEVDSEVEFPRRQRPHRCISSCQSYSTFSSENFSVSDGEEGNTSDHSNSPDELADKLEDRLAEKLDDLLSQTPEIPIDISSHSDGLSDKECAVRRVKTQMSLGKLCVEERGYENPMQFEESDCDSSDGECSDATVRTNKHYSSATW", "test": "Inhibition of LZK (unknown origin) assessed as residual activity at 100 nM by KINOMEscan analysis relative to control"}, "[3]": {"target": "Ephrin type-A receptor 2 (Homo sapiens) (UniProt P29317)", "sequence (P29317 whole entry)": "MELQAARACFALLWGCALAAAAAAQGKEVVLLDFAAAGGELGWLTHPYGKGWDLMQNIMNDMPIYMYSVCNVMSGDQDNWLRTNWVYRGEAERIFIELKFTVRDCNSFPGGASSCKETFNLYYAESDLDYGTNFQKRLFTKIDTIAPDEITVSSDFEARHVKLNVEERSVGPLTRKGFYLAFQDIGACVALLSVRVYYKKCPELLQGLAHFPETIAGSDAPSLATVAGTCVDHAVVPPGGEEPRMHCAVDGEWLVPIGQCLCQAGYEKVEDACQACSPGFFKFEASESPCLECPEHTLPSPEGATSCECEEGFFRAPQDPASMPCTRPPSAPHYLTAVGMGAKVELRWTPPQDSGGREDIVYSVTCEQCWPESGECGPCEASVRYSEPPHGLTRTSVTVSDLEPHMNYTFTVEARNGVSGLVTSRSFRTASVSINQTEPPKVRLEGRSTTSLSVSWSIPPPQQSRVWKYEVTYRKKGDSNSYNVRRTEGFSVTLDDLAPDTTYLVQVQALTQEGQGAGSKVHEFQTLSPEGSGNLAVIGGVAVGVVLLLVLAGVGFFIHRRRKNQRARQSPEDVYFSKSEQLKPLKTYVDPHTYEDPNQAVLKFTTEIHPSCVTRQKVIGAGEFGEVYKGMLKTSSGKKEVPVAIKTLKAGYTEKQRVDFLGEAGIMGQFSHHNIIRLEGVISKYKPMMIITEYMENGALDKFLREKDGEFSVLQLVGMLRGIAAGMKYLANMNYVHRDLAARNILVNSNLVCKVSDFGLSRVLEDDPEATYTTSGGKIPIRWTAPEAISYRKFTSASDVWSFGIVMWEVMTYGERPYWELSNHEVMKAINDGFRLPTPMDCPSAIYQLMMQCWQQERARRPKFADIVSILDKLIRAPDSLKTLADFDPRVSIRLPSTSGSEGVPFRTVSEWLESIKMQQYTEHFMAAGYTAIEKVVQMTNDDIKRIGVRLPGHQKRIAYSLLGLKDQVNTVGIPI", "test": "Inhibition of EPHA2 (unknown origin) assessed as residual activity at 100 nM by KINOMEscan analysis relative to control"}, "[4]": {"target": "Interferon-induced, double-stranded RNA-activated protein kinase (Homo sapiens) (UniProt P19525)", "sequence (P19525 whole entry)": "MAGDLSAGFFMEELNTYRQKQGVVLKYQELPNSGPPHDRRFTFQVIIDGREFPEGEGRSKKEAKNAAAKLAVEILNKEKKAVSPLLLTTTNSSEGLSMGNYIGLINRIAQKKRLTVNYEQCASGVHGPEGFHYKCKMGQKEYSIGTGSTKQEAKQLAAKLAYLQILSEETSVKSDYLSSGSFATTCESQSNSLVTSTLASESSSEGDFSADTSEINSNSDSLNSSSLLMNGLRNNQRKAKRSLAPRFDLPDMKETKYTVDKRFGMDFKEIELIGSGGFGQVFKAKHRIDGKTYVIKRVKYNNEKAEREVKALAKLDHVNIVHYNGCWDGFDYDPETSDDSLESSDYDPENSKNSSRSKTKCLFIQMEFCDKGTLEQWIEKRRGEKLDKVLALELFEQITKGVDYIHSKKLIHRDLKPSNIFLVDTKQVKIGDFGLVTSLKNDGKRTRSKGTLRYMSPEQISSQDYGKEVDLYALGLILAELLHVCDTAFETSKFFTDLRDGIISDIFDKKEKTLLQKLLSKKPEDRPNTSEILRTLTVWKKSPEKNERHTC", "test": "Inhibition of PRKR (unknown origin) assessed as residual activity at 100 nM by KINOMEscan analysis relative to control"}, "[5]": {"target": "Macrophage-stimulating protein receptor (Homo sapiens) (UniProt Q04912)", "sequence (Q04912 25-304 limits assumed)": "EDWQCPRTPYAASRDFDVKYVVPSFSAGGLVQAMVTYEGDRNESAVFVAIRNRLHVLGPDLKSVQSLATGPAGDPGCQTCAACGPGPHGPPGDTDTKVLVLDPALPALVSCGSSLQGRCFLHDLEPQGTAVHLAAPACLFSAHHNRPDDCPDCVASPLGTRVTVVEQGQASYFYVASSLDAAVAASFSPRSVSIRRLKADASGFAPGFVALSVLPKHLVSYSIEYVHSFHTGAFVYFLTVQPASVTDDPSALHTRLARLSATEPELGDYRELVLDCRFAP", "sequence (Q04912 310-1400 limits assumed)": "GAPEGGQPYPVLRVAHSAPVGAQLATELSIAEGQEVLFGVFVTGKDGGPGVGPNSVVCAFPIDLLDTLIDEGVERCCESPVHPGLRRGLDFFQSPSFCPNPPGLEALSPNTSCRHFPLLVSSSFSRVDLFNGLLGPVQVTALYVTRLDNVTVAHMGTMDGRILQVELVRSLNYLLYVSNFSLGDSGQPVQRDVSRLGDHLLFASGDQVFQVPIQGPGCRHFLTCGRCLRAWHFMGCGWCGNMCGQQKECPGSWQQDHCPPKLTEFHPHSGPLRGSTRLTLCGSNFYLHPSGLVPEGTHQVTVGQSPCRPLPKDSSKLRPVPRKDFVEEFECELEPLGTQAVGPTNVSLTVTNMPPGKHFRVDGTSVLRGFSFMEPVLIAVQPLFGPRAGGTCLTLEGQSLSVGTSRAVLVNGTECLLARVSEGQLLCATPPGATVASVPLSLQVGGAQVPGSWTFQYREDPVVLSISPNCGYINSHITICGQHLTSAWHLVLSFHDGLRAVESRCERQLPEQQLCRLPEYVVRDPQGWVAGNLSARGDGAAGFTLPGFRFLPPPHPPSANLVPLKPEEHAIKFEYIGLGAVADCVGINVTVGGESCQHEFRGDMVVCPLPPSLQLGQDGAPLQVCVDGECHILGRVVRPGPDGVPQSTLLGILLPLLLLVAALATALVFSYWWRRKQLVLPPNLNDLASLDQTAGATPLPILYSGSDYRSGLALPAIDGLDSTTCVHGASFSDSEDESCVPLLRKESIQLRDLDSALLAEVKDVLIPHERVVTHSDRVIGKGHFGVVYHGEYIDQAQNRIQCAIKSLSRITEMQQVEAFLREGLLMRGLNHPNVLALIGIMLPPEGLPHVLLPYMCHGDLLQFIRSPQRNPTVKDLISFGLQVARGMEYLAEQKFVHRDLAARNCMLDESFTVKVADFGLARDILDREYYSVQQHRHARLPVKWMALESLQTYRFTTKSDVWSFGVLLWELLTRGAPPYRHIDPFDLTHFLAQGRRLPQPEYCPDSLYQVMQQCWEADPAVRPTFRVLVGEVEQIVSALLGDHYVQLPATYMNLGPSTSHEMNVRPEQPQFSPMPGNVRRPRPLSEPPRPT", "test": "Inhibition of MST1R (unknown origin) assessed as residual activity at 100 nM by KINOMEscan analysis relative to control"}, "[6]": {"species_on_record": "Homo sapiens", "test": "Stabilization of N-terminal His10-tagged recombinant human KRAS G12C/C118S mutant (1 to 169 residues) expressed in Escherichia coli assessed as change in melting temperature at 100 uM with heating from 25 to 85 degreeC by thermal shift assay"}, "[7]": {"target": "Dual specificity mitogen-activated protein kinase kinase 2 (Homo sapiens) (UniProt P36507)", "sequence (P36507 whole entry)": "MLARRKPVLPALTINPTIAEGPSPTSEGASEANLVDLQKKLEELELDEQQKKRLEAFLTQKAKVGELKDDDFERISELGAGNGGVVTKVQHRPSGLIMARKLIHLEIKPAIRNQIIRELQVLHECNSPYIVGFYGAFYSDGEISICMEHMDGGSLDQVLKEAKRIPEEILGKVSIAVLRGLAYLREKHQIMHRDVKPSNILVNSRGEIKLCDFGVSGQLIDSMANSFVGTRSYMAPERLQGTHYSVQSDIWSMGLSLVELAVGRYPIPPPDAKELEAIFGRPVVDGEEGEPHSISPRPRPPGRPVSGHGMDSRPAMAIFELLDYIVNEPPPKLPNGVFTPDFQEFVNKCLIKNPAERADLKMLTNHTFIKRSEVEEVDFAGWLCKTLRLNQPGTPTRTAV", "test": "Inhibition of MEK2 (unknown origin) assessed as residual activity at 100 nM by KINOMEscan analysis relative to control"}, "[8]": {"tested_on": "Tyrosine-protein kinase ABL1 (Homo sapiens), P00519 [T315I]", "test": "Inhibition of phosphorylated ABL1 T315I mutant (unknown origin) assessed as residual activity at 100 nM by KINOMEscan analysis relative to control"}}, "data": [{"smiles": "COc1cc2ncnc(N[C@H](C)c3cccc4ccccc34)c2cc1OC", "values": [{"measurement": "inhibition", "setting": "[1]", "result": 95, "unit": "%"}, {"measurement": "Activity", "setting": "[2]", "result": 82, "unit": "%"}, {"measurement": "Activity", "setting": "[3]", "result": 82, "unit": "%"}, {"measurement": "Activity", "setting": "[4]", "result": 100, "unit": "%"}, {"measurement": "Activity", "setting": "[5]", "result": 100, "unit": "%"}, {"measurement": "ΔTm", "setting": "[6]", "result": -1.9, "unit": "°C"}, {"measurement": "Activity", "setting": "[7]", "result": 90, "unit": "%"}, {"measurement": "Activity", "setting": "[8]", "result": 89, "unit": "%"}]}]}
